Target: T1, angiotensin converting enzyme (EC 3.4.15.1) (Bos taurus, UniProt P12820)
T1 construct: Unless otherwise indicated, the source of each enzyme activity was a detergent extract of bovine lung; from tissue; host or cells: detergent extract of bovine lung
T1 sequence (P12820 29-1306): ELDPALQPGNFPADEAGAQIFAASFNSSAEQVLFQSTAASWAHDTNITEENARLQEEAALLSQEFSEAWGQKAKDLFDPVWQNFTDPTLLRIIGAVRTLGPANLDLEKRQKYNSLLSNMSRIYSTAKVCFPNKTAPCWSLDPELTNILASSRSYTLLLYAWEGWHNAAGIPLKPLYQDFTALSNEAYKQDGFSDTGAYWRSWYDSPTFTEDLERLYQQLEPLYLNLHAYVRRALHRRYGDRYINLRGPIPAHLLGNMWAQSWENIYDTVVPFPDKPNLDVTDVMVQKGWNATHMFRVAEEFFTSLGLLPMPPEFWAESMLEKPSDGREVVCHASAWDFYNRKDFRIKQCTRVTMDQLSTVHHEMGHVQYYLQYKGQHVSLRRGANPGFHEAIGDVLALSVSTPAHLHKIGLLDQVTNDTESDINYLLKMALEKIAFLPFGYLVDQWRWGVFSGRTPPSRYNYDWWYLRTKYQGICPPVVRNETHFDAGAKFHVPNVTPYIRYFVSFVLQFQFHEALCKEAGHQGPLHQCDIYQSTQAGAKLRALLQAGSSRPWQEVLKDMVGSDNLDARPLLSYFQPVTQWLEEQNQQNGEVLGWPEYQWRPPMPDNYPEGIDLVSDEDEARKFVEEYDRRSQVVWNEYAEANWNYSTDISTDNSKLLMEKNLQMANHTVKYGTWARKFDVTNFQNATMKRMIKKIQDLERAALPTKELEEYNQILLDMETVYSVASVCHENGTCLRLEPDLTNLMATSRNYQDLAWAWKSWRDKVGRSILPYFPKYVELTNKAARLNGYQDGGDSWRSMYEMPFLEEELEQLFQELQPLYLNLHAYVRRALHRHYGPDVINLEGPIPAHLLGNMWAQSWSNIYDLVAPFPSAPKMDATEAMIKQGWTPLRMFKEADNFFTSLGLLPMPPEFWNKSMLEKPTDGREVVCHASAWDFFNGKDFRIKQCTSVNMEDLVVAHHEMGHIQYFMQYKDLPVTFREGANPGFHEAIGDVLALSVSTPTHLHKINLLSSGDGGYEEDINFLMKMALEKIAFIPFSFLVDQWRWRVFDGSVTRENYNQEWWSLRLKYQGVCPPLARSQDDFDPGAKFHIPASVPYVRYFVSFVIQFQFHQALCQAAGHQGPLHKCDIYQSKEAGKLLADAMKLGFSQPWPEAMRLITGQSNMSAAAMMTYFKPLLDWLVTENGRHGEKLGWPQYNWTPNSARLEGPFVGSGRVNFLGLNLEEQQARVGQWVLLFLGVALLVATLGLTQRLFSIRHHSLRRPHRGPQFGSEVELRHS
Assay: Specificity of apstatin: angiotensin converting enzyme
Type: biochemical
Details: detergent extract of bovine lung; Hip-His-Leu, pH 6.5, HPLC-1
Method: Specificity of Apstatin--Apstatin was assayed for its ability to inhibit several other peptidases. […] Unless otherwise indicated, the source of each enzyme activity was a detergent extract of bovine lung prepared as described in (12-13). Activities were determined by a modification of the fluorescent assay described above (indicated by "FLUO") or by HPLC separation and quantitation of reaction products using the method described in (12) (method "HPLC-1") or the method described below (method "HPLC-2"). […]

C[C@H](NC(=O)[C@@H]1CCCN1C(=O)[C@@H]1CCCN1C(=O)[C@@H](O)[C@H](N)Cc1ccccc1)C(N)=O [apstatin, N-[(2S, 3R)-3-amino-2-hydroxy-4-phenylbutanoyl]-L-prolyl-L-prolyl-Lalaninamide] was tested, and the IC50 was greater than 800 µM.
